# Reference: patent publication US6057153A, “Stabilized external guide sequences” (Yale University, priority 1997, dated 2000)
# Entries after “also recorded” stand apart in the source; their conditions may differ.
# Experiments:
# 2.1 kb HBV RNA = experiment: RNAse P cleavage of large target RNA; type: biochemical; conditions: 250 nM EGS, 30 minutes at 37° C.
# Description: To test cleavage with a longer target RNA molecules, different reaction conditions were used. Reactions in a total volume of 10 μl contained 40 mM Tris-HCl (pH 7.4), 10 mM MgCl2, 1 mM spermidine 10 mM dithiothreitol, 0.05 μg/μl nuclease-free bovine serum albumin, 0.01% (v/v) Triton-X100™, 0.8 Units/μl RNASIN, 0.2 mM ATP, 0.2 mM GTP, 0.2 mM UTP, 0.2 mM CTP, 0.1 μCi/μl [a^32 P] CTP, 2 mM m^7 G(5')pppG, 0.06 μg/μl yeast RNA, 25 mM KCl, 3 Units T7 RNA polymerase, 250 nM EGS, 1 μl of human RNAse P and 3 ng/μl linearized plasmid. Reactions were initiated by the addition of linearized plasmid and incubated for 30 minutes at 37° C. Reactions were terminated by the addition of 10 μl of 80% formaemide, 10 mM EDTA, 0.1% bromphenol blue. After heating for 2 minutes at 90° C., samples were electrophoresed for 2 hours at 48 watts on a 5% denaturing polyacrylamide gel. After vacuum drying for 1 hour at 60° C., the gel was analyzed by phosphoimaging.
# Cleavage of Large Target RNA: Plasmid pAYW2.1, containing the sequence that encodes the 2.1 kb RNA of the AYW strain of HBV, was linearized by digestion with Not I, and then transcribed by T7 RNA polymerase in the presence of [α^32 P]CTP. Labeled transcripts were incubated for 30 minutes at 37° C. with RNase P in the presence of various EGS molecules. Reaction products were subjected to denaturing polyacrylamide gel electrophoresis, and analyzed by phosphoimaging. EGS-mediated cleavage at the targeted site of the 2.1 kb transcript produces cleavage products that are approximately 1.7 and 0.4 kb in length.
# [1] = Nuclease resistance studies in 50% human serum; type: in vitro ADME; conditions: 37° C.
# Description: Nuclease resistance studies--100 μl of EGS oligonucleotides (5 μM), containing a trace of 5'-end-labeled oligomers, were incubated at 37° C. for different time periods (0-24 h) with 50% human serum (Sigma, S-7023). 20 μl aliquots were diluted to 100 μl with RNase-free water, phenol/chlorform extracted, and ethanol precipitated. The residue was resuspended in 10 μl of TE and 10 μl of 2× gel loading buffer containing 98% formamide, 10 mM1 EDTA and 0.1% bromophenol blue. The mixture was heated to 85° C. for 1 min, quickly cooled on ice and frozen at -20° C. prior to electrophoresis on 15% polyacrylamide/8 M urea gels. Gels were subsequently scanned on a Molecular Dynamics PHOSPHORIMAGER™, and the stability profile for each, oligomer was estimated from the ratio of the remaining intact materials versus all radio-labeled materials (intact oligomers plus degradation products). Stability studies of non radio-labeled EGS oligomers using capillary gel electrophoresis were also carried out according to the method of Leeds et al. (15).
# [2] = test system: EGS/target RNA complex (SUB-156) with human RNase P; experiment: Measurements of kcat and A50; type: biochemical, hepatitis B virus (HBV)
# Description: Measurements of kcat, Km and A50 --Measurements of these kinetic parameters were carried out using conditions similar to those described above (e.g. identical cleavage buffers). For kcat measurements, aliquots were taken every 30-60 s for the first 5 min. The logarithm of the percentage of cleavage (Abs. Cleavage %) was plotted against time, and the data points were fitted using a linear least-squaresanalysis. The slope represents kcat values. For Km measurements,a fixed amount of RNase P (0.6 μl) was used, while substrate concentrations (i.e. EGS/target RNA complex) varied from 25 to 500 nM. Several EGS/target RNA ratios were assayed including 1:1, 5:1 and 10:1. Attempts were made to obtain Km and Vmax values from linear Lineweaver-Burk or Eadie-Hofstee plots. The scattered values could not be fit as a hyperbolic function. For A50 measurements, the ratio between EGS and target RNA was kept as 10:1. Various amounts of RNase P (0.3 to 3 μl) were used to conduct a 60-min cleavage reaction. Percentage of cleavage was plotted against [RNase P] in μl, and 50% cleavage values (A50) were determined using a non-linear, least-squares routine (Kaleidagraph, Synergy Software). The amount of RNase P required to reach A50 was then converted to enzyme unit. 1 unit of RNase P represents the amount of RNase P that catalyzes the conversion of 1 pmol of tRNA^Tyr precursor to cleavage products per minute per μl of the enzyme preparation. 1 unit of RNase P preparation used for this study equals 28.57 μl.
# Substrate RNA (SUB-156) = experiment: RNase P-mediated cleavage assay, single turnover conditions; type: biochemical, hepatitis B virus (HBV); conditions: 200 nM EGS, 20 nM substrate, saturating RNase P, 60 min
# Description: RNase P-mediated cleavage assay--Human RNase P was purified from HeLa cells according to the published procedures (14). Substrate RNA (SUB-156, FIG. 24) was 5'-end labeled using T4 polynucleotide kinase and [γ-^32P]ATP. The labeling mixture was then heated to 85° C. for 1 min, diluted with RNase-free water, and purified by a MICROSPIN™ G-25 column (Pharmacia) according to the manufacturer's instructions. Cleavage reactions were conducted in a reaction buffer containing 50 mM Tris-HCl (pH 7.4), 25 mM KCl, 10 mM MgCl2 and 0.1 mM EDTA. EGS oligomers and ^32 p-5'-end-labeled RNA substrate were heated in the reaction buffer without MgCl2 to 85° C. for 1 min and then slowly cooled to room temperature. The cleavage reaction was initiated by adding 2 μl of 100 mM MgCl2 and 3 μl of RNase P (enzyme activity for this preparation: cleavage of 0.035 pmol of tRNA^Tyr precursor min^-1 μl^-1). The final reaction volume was 20 μl and the reaction was incubated at 37° C. for 60 min. […] For each sample, cleavage reactions were performed in duplicates and the average values were used. To ensure reproducibility, cleavage assays for each EGS were also repeated in two separate experiments. The all-RNA EGS-159 was used as the reference sample and its cleavage values were counted as 100%. Cleavage percentages of all other EGSs were normalized against EGS-159 (Rel. Cleavage %) except in FIG. 30 and FIG. 31 where absolute cleavage percentages (Abs. Cleavage %) were plotted.
# For EGS-single turnover conditions, the final concentrations were 200 nM for EGS and 20(nM for the RNA substrate. For EGS-multiple turnover conditions, the final concentrations were 200 nM for the RNA substrate and 40 nM for EGS. When determination of the time-course was required, the reaction volume was increased to 40 μl. Aliquots of 5-8 μl were removed from the reaction mixture at different time points (e.g. 1, 5, 15, 30 and 60 min), quenched in formamide loading buffer, and loaded onto 15% polyacrylamide/8 M urea gels. Quantitation of the cleavage product and the remaining RNA substrate was achieved using a Molecular Dynamics PHOSPHORIMAGER™.
# General considerations--To select lead nuclease-resistant oligonucleotide prototypes as external guide sequences among many possible modifications, a reliable yet rapid in vitro cleavage assay for routine screening was used. Human RNase P, a ribonucleoprotein, is composed of a 340-nt H1 RNA component and one or more proteins (for recent review, see Ref. 16). A 3-step screening strategy was devised: 1) All analogues once synthesized were tested by a fast qualitative cleavage assay under single turnover conditions with 10-fold excess of EGS over target RNA substrate for 60 min. […] This was the best cleavage condition used in this study. Any analogue with a reasonable activity (e.g. more than 5% cleavage) would not be missed, under these circumstances, due to the high detection sensitivity provided by PHOSPHORIMAGER™. 2) Promising analogues were then assayed for stability in 50% human serum.
# [3] = test system: short substrate (SEQ ID NO. 1) derived from the full-length pre-genomic HBV RNA; experiment: RNAse P cleavage assay, short substrate; type: biochemical; conditions: short substrate, EGS 200 nM, 37° C., 1 hour
# Description: RNAse P Cleavage Assays: Cleavage reactions were carried out generally according to the procedure described by Yuan et al., Proc. Natl. Acad. Sci., USA, 89:8006-8010, (1992), which is hereby incorporated by reference. Briefly, short substrate reactions were made up to a total volume of 31μ in 50 mM Tris-HCl pH 7.4, 10 mM MgCl2, 25 mM KCl, 0.1 mM EDTA, […] at 37° C. for 1 hour. After incubation, the reaction solution was mixed with loading buffer (98% formamide, 10 mM EDTA, 0.025% bromophenol blue). The cleaved substrate was separated from the uncleaved by electrophoresis on a 15% acrylamide gel containing 7 M urea. The bands were quantified on a Molecular Dynamics PHOSPHORIMAGER™.
# The bands corresponding to the precursor RNA substrate and the resulting two cleavage products were counted from the dried gel using a BETASCOPE™ gel analyzer (Betagen).
# RNAse P was purified by DEAE SEPHAROSE™ chromatography and glycerol density gradient centrifugation essentially as described by Bartkiewicz et al., Genes Dev. 3:488-499 (1989), which is hereby incorporated by reference.
# The percentage of precursor RNA substrate remaining in either assay was plotted as function of the EGS concentration and the catalytic efficiency expressed as kcat /Km (where kcat is the rate constant of cleavage and Km is the Michaelis constant), the second order rate constant for the reaction of free EGS and substrate. Following the methods of Heidenreich and Eckstein (J. Biol. Chem., 267:1904-1909 (1992), the efficiency of the cleavage reaction, kcat /Km), was determined using the formula
# The EGS constructs described in Example 2 were assayed using the RNAse P cleavage assays described in Example 1 to determine the efficiency of the cleavage reaction. FIG. 1 depicts the model system using a short substrate which was used to evaluate the ability of modified EGS molecules in inducing RNase P-mediated target cleavage. The sequence of the short substrate (SEQ ID NO. 1) was derived from the full-length pre-genomic HBV RNA.
substance,measurement,setting,value
"EGS H62: all-RNA EGS, SEQ ID NO. 3, prepared by T7 RNA polymerase transcription (guide CGAUGAAGGUUCGAAUCCUUCCCAGGAC; unmodified RNA)",RNase P-mediated cleavage of 2.1 kb HBV RNA,2.1 kb HBV RNA,Complete cleavage
"EGS-364: EGS-356 with disrupted T-stem, SEQ ID NO. 34 (guide AGAUGAUACACUGUUCGAAUGGUACACGCCGCN; chemistry not given here)",stability in 50% human serum,[1]; experiment of 2 h,did not change the results
"EGS-398: lead prototype, U54 replaced with 2'-deoxyuridine, SEQ ID NO. 44 (guide AGAUGAUAGAAGGUUAGAAUCCUUCACGCCGC; 2'-deoxyuridine at tRNA position 54, rest of chemistry not given here)",A50 (amount of RNase P required to achieve 50% cleavage),"[2]; 60 min, EGS in 10-fold excess relative to the RNA target",0.061 unit
same,kcat,"[2]; single turnover, first 5 min",indistinguishable from that of the all-RNA control
same,degradation in 50% human serum,[1]; 24 h,no degradation products were detected
same,RNase P-mediated cleavage activity compared to the all-RNA control,Substrate RNA (SUB-156),promising
"EGS-399: U54 replaced with riboadenosine, SEQ ID NO. 45 (AGAUGAUAGAAGGAUAGAAUCCUUCACGCCGC; guide RNA; Riboadenosine at tRNA position 54, rest of chemistry not given here)",fraction degraded in 50% human serum,[1]; 24 h,16%
same,RNase P-mediated cleavage activity compared to the all-RNA control,Substrate RNA (SUB-156),promising
"INNO-124: SEQ ID NO. 2, 2'-O-methyl arms, variable loop, T stem and first 5'-U of T loop (CGAUACGGAAGGUUCGAAUCCUUCCCAGGAC; 2'-O-methyl modifications, chemistry not fully specified)",efficiency of RNase P-mediated target cleavage relative to the wild-type EGS,[3],most pronounced decrease in cleavage efficiency
"INNO-126: SEQ ID NO. 2, 2'-O-methyl arms, variable loop, T stem and third 5'-C of T loop (CGAUACGGAAGGUUCGAAUCCUUCCCAGGAC; 2'-O-methyl modifications, chemistry not fully specified)",efficiency of RNase P-mediated target cleavage relative to the wild-type EGS,[3],most pronounced decrease in cleavage efficiency
"INNO-149: SEQ ID NO. 3, 2'-O-methyl arms and T stem, phosphorothioate T loop, 3'-amino group (CGAUGAAGGUUCGAAUCCUUCCCAGGAC; 2'-O-methyl, phosphorothioate T loop, 3'-amino, chemistry not fully specified)",RNase P-mediated cleavage of 2.1 kb HBV RNA,2.1 kb HBV RNA,capable of inducing RNase P-mediated cleavage; also recorded: mostly cleaved
same,RNase P-mediated cleavage of 2.1 kb HBV RNA,2.1 kb HBV RNA; listed as analogue 149,more effective than analogue 155
